Reference: US7105508B1, “Integrin receptors antagonists” (Abbott GmbH & Co. KG, priority 1999, dated 2006)

What follows are compounds tested against T1, integrin αvβ3 (Homo sapiens, UniProt P05106+P06756) (assay: Integrin αvβ3 assay (competition with vitronectin for solid phase-bound integrin αvβ3)). Details: competition with human vitronectin for binding to solid phase-bound integrin αvβ3 from human placenta; qualitative ranking only.
T1 construct: from tissue; host or cells: human placenta
Method: Integrin αvβ3 antagonists were identified and assessed by using an assay system based on competition between the natural integrin αvβ3 ligand vitronectin and the test substance for binding to solid phase-bound integrin αvβ3.
• Coat microtiter plates with 250 ng/ml integrin αvβ3 in 0.05 M NaHCO3 pH 9.2; 0.1 ml/well; • saturate with 1% milk powder/assay buffer; 0.3 ml/well; 0.5 h/RT • wash 3× with 0.05% Tween 20/assay buffer • test substance in 0.1% milk powder/assay buffer, 50 μl/well+0 μg/ml or 2 μg/ml human vitronectin (Boehringer Ingelheim T007) in 0.1% milk powder/assay buffer, 50 μl/well; 1 h/RT • wash 3× with 0.05% Tween 20/assay buffer • 1 μg/ml anti-human vitronectin antibody coupled to peroxidase (Kordia SAVN-APHRP) in 0.1% milk powder/assay buffer; 0.1 ml/well; 1 h/RT • wash 3× with 0.05% Tween 20/assay buffer • 0.1 ml/well peroxidase substrate • stop reaction with 0.1 ml/well 2 M H2SO4 • measure absorption at 450 nm
Integrin αvβ3: human placenta is solubilized with Nonidet, and integrin αvβ3 is affinity-purified on a GRGDSPK matrix (elution with EDTA). Contamination by integrin αIIbβ3 and human serum albumin, and the detergent and EDTA, are removed by anion exchange chromatography.
Assay buffer: 50 mM Tris pH 7.5; 100 mM NaCl; 1 mM CaCl2; 1 mM MgCl2; 10 μM MnCl2
Peroxidase substrate: mix 0.1 ml of TMB solution (42 mM TMB in DMSO) and 10 ml of substrate buffer (0.1 M Na acetate, pH 4.9) and then add 14.7 μl of 3% H2O2.
Various dilutions of the test substances are used in the assay, and the IC50 values are determined (concentration of the antagonist at which 50% of the ligand is displaced).

IC50 values (concentration of the antagonist at which 50% of the ligand is displaced), best results:
CC(=O)OC1c2ccccc2C(=O)N(CC(=O)NCc2ccc(Nc3nc4ccccc4[nH]3)cc2)c2ccccc21 (stereo not shown) [Example I.B.37, 5-(2-{[4-(1H-Benzimidazol-2-ylamino)benzyl]amino}-2-oxoethyl)-6-oxo-6,11-dihydro-5H-dibenzo[b,e]azepin-11-yl acetate]
CC(=O)OC1c2ccccc2C(=O)N(CC(=O)NCc2cnc(NC(=N)N)s2)c2ccccc21 (stereo not shown) [Example I.B.46, 5-(2-{[(2-{[Amino(imino)methyl]amino}-1,3-thiazol-5-yl)-methyl]amino}-2-oxoethyl)-6-oxo-6,11-dihydro-5H-dibenzo[b,e]-azepin-11-yl acetate]
O=C(O)CC1c2ccccc2C(=O)N(CC(=O)NCc2ccc(NC(=O)NCc3ccccc3)cc2)c2ccccc21 (stereo not shown) [Example I.B.52, (5-{2-[(4-{[(Benzylamino)carbonyl]amino}benzyl)amino]-2-oxoethyl}-6-oxo-6,11-dihydro-5H-dibenzo[b,e]azepin-11-yl)acetic acid]
CC(=O)OC1c2ccccc2C(=O)N(Cc2nc(C(=O)NCc3cc(CNc4ccccn4)cs3)cs2)c2ccccc21 (stereo not shown) [Example I.B.118, 6-Oxo-5-[(4-{[({4-[(2-pyridinylamino)methyl]-2-thienyl}methyl)-amino]carbonyl}-1,3-thiazol-2-yl)methyl]-6,11-dihydro-5H-dibenzo [b,e]azepin-11-yl acetate]
